Test results as given in patent publication US11999715B2, “ASK1 inhibiting agents” (BIOGEN MA INC., priority 2018, dated 2024).

Experiments:
[1] = target: T1, ASK1 T838 auto phosphorylation (Homo sapiens, UniProt Q99683); test: ASK1 (AUTO PHOS T838) assay, MSD format, in HEK-293T cells transfected with ASK1-V5; type: cell-based; conditions: ASK1 T838 auto phosphorylation in HEK-293T cells, 1 hr compound incubation; class symbols
T1 sequence (Q99683 1-1374): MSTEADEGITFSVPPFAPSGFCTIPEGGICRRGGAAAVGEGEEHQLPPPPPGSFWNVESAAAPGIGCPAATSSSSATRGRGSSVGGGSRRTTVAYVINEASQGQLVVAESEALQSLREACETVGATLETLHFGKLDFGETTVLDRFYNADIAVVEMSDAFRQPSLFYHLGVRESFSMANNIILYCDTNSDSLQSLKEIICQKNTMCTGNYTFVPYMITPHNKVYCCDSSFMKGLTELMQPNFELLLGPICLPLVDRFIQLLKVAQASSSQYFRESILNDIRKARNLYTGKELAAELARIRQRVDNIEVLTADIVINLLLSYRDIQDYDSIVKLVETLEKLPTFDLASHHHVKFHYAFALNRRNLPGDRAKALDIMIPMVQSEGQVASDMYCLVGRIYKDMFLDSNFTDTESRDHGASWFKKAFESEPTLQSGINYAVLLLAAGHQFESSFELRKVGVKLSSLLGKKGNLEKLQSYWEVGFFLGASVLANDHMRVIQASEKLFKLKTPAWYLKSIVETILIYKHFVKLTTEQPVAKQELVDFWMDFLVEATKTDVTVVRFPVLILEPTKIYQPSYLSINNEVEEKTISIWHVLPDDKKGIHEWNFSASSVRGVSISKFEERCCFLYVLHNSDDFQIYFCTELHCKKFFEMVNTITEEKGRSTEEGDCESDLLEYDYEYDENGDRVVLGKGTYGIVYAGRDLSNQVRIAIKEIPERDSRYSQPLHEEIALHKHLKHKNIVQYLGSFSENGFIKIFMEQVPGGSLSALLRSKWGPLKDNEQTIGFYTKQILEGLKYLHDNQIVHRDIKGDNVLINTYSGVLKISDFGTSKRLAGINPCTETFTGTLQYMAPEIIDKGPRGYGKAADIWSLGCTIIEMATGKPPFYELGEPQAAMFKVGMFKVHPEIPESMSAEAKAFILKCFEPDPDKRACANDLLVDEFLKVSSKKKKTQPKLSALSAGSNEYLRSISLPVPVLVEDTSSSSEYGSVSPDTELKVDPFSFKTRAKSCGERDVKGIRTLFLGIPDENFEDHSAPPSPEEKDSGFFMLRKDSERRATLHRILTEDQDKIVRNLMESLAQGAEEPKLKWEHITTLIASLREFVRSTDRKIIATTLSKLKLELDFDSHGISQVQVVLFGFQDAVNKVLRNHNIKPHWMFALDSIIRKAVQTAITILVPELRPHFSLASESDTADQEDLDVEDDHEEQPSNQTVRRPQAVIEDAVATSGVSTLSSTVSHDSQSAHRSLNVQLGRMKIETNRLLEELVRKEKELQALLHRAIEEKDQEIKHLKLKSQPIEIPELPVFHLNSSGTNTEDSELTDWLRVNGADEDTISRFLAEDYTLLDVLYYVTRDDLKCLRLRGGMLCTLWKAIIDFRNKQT
Procedure: Example 112: Brief Description of ASK1(AUTO PHOS T838) Assay ASK1 T838 auto phosphorylation was measured in HEK-293T cells using MSD assay format. HEK 293T cells were seeded in 15 cm plates at a density of 18 million cells and 20 mL DMEM with 10% FBS, Pen/Strep media. The plates were incubated at 37° C. overnight. Media on plates was changed to OPTI-MEM, serum free media and cells were transfected with 9 μg of ASK1-V5 tagged full length plasmid using Lipofectamine 2000 (Invitrogen) and the plates were incubated at 37° C. overnight. Cells were trypsinized, counted on Nexcellometer and plated into 96 well tissue culture plates with 100,000 cells/well and 200 μL media. Cells were incubated for 4 hr at 37° C. then ASK1 compounds were added using a HP 300e. Compounds were tested at 20 μM with 3 fold, 10 point dilution points then incubated for 1 hr at 37° C. A lysis buffer (Cell Signaling) was prepared with protease and phosphatase inhibitor and maintained at 4° C. until use. Media from cells was discarded and 120 μL of cold lysis buffer was added to the cells, the plate was shaken 4° C. for 1 hr. Lysate was mixed using Apricot liquid handler; aspirating up and down 16 times at high speed using 50 μL volume. […] Plates were then incubated on a plate shaker overnight at 4° C. Plates were washed 3× with MSD wash buffer and 50 μL of rabbit anti-pASK1 T838 antibody was added to the wells and incubated for 2 hr at room temperature on a plate shaker. Plates were then washed and 50 μL of goat anti-rabbit sulfa-tag (1:500 dilution) was added to wells, and incubated for 1 hr at room temperature on a plate shaker. […] Plates were immediately read on a MSD Instrument Reader where chemoluminescence signal was measured. Data was analyzed using Graph Pad or Genedata, the data was normalized and plotted, % activity versus log of compound concentration. The IC50 values were obtained from a 4 parameter fit. The compounds described herein were tested for in the above cell-based assay.

[2] = target: T2, ASK1/MAP3K5 (Homo sapiens, UniProt Q99683); test: ASK1/MAP3K5 kinase assay by Reaction Biology Corp. (headed ASK1 TR-FRET Assay); type: biochemical; conditions: 20 μM myelin basic protein, 10 μM ATP, class symbols
T2 sequence (Q99683 1-1374): T1 sequence (Q99683 1-1374)
Procedure: Example 111: Brief Description of ASK1 TR-FRET Assay The protein kinase inhibitory activity of the compounds described herein were tested using the ASK1/MAP3K5 assay by Reaction Biology Corp. (Malvern, PA). The assay procedure follows (and is also available on the Reaction Biology Corp. website). Base Reaction Buffer: 20 mM Hepes (pH 7.5), 10 mM MgCl2, 1 mM EGTA, 0.02% Brij35, 0.02 mg/mL BSA, 0.1 mM Na3VO4, 2 mM DTT, 1% DMSO; Substrate: 20 μM of myelin basic protein (MBP) and 10 μM ATP; Protein kinase: ASK1/MAP3K5. Reaction Procedure: • 1. Prepare indicated substrate in freshly prepared Base Reaction Buffer. • 2. Deliver any required cofactors to the substrate solution. • 3. Deliver indicated kinase into the substrate solution and gently mix. • 4. Deliver compounds in DMSO into the kinase reaction mixture by Acoustic; technology (Echo550; nanoliter range), incubate for 20 minutes at room temperature. • 5. Deliver ^33P-ATP (specific activity 10 μCi/μL) into the reaction mixture to initiate the reaction. • 6. Incubate kinase reaction for 2 hours at room temperature. • 7. Reactions are spotted onto P81 ion exchange paper. • 8. Detect kinase activity by filter-binding method.

CC(C)n1cncc1-c1cccc(NC(=O)c2cn(-c3cncc(C4CC4)c3)nc2C(F)F)n1 [Example 96, 1-(5-Cyclopropylpyridin-3-yl)-3-(difluoromethyl)-N-(6-(1-isopropyl-1H-imidazol-5-yl)pyridin-2-yl)-1H-pyrazole-4-carboxamide]
IC50 [1]: ≤ 1000 nM
IC50 [2]: 100 to 1000 nM

CCCn1cc(C(=O)Nc2cccc(-c3nncn3C(C)C(F)(F)F)n2)c(OC)n1 (stereo not shown) [Example 59, 3-Methoxy-1-propyl-N-(6-(4-(1,1,1-trifluoropropan-2-yl)-4H-1,2,4-triazol-3-yl)pyridin-2-yl)-1H-pyrazole-4-carboxamide]
IC50 [1]: ≤ 1000 nM
IC50 [2]: ≤ 100 nM

C=CCn1cc(C(=O)Nc2cccc(-c3nncn3C(C)C)n2)c(OC)n1 [Example 55, 1-Allyl-N-(6-(4-isopropyl-4H-1,2,4-triazol-3-yl)pyridin-2-yl)-3-methoxy-1H-pyrazole-4-carboxamide]
IC50 [1]: ≤ 1000 nM
IC50 [2]: ≤ 100 nM

C=CCn1cc(C(=O)Nc2cccc(-c3nncn3[C@@H](C)C(F)(F)F)n2)c(OC)n1 [Example 57, (S)-1-Allyl-3-methoxy-N-(6-(4-(1,1,1-trifluoropropan-2-yl)-4H-1,2,4-triazol-3-yl)pyridin-2-yl)-1H-pyrazole-4-carboxamide]
IC50 [1]: ≤ 1000 nM
IC50 [2]: ≤ 100 nM

Cc1cncc(-n2cc(C(=O)Nc3cccc(-c4cncn4C(C)C)n3)c(C(F)F)n2)c1 [Example 93, 3-(Difluoromethyl)-N-(6-(1-isopropyl-1H-imidazol-5-yl)pyridin-2-yl)-1-(5-methylpyridin-3-yl)-1H-pyrazole-4-carboxamide]
IC50 [1]: ≤ 1000 nM
IC50 [2]: ≤ 100 nM

COc1nn(C)cc1C(=O)Nc1cccc(-c2nncn2[C@@H]2CCC2(F)F)n1 (single isomer, unassigned) [Example 32]
IC50 [1]: ≤ 1000 nM
IC50 [2]: 100 to 1000 nM

CC(C)n1cnnc1-c1cccc(NC(=O)c2cn(-c3cncc(C#N)c3)nc2C(F)F)n1 [Example 76, 1-(5-Cyanopyridin-3-yl)-3-(difluoromethyl)-N-(6-(4-isopropyl-4H-1,2,4-triazol-3-yl)pyridin-2-yl)-1H-pyrazole-4-carboxamide]
IC50 [1]: ≤ 1000 nM
IC50 [2]: ≤ 100 nM

COc1nn(Cc2ccccn2)cc1C(=O)Nc1cccc(-c2nncn2C(C)C)n1 [Example 44, N-(6-(4-Isopropyl-4H-1,2,4-triazol-3-yl)pyridin-2-yl)-3-methoxy-1-(pyridin-2-ylmethyl)-1H-pyrazole-4-carboxamide]
IC50 [1]: ≤ 1000 nM
IC50 [2]: ≤ 100 nM

CC(C)n1cncc1-c1cccc(NC(=O)c2cn(-c3cncc(O)c3)nc2C(F)F)n1 [Example 99, 3-(Difluoromethyl)-1-(5-hydroxypyridin-3-yl)-N-(6-(1-isopropyl-1H-imidazol-5-yl)pyridin-2-yl)-1H-pyrazole-4-carboxamide]
IC50 [1]: ≤ 1000 nM
IC50 [2]: ≤ 100 nM

CC(C)n1cncc1-c1cccc(NC(=O)c2cn(-c3cncc(C#N)c3)nc2C(F)F)n1 [Example 95, 1-(5-Cyanopyridin-3-yl)-3-(difluoromethyl)-N-(6-(1-isopropyl-1H-imidazol-5-yl)pyridin-2-yl)-1H-pyrazole-4-carboxamide]
IC50 [1]: ≤ 1000 nM
IC50 [2]: ≤ 100 nM

COc1nn(C)cc1C(=O)Nc1cccc(-c2nncn2C(C)(C)C)n1 [Example 21, N-(6-(4-(tert-Butyl)-4H-1,2,4-triazol-3-yl)pyridin-2-yl)-3-methoxy-1-methyl-1H-pyrazole-4-carboxamide]
IC50 [1]: ≤ 1000 nM
IC50 [2]: ≤ 100 nM

COc1nn(-c2ccccc2)cc1C(=O)Nc1cccc(-c2nncn2C(C)C)n1 [Example 60, N-(6-(4-Isopropyl-4H-1,2,4-triazol-3-yl)pyridin-2-yl)-3-methoxy-1-phenyl-1H-pyrazole-4-carboxamide]
IC50 [1]: ≤ 1000 nM

CC(C)Oc1cncc(-n2cc(C(=O)Nc3cccc(-c4cncn4C(C)C)n3)c(C(F)F)n2)c1 [Example 100, 3-(Difluoromethyl)-1-(5-isopropoxypyridin-3-yl)-N-(6-(1-isopropyl-1H-imidazol-5-yl)pyridin-2-yl)-1H-pyrazole-4-carboxamide]
IC50 [1]: ≤ 1000 nM
IC50 [2]: ≤ 100 nM

COc1nn(-c2cnccn2)cc1C(=O)Nc1cccc(-c2nncn2[C@@H](C)C(F)(F)F)n1 [Example 87, (S)-3-Methoxy-1-(pyrazin-2-yl)-N-(6-(4-(1,1,1-trifluoropropan-2-yl)-4H-1,2,4-triazol-3-yl)pyridin-2-yl)-1H-pyrazole-4-carboxamide]
IC50 [1]: ≤ 1000 nM
IC50 [2]: ≤ 100 nM

COCc1nn(C)cc1C(=O)Nc1cccc(-c2nncn2C(C)C)n1 [Example 4, N-(6-(4-Isopropyl-4H-1,2,4-triazol-3-yl)pyridin-2-yl)-3-(methoxymethyl)-1-methyl-1H-pyrazole-4-carboxamide]
IC50 [1]: 1000 to 10000 nM
IC50 [2]: 100 to 1000 nM

COc1nn(C)cc1C(=O)Nc1cccc(-c2nncn2C2CC2)n1 [Example 18, N-(6-(4-Cyclopropyl-4H-1,2,4-triazol-3-yl)pyridin-2-yl)-3-methoxy-1-methyl-1H-pyrazole-4-carboxamide]
IC50 [1]: ≤ 1000 nM
IC50 [2]: ≤ 100 nM

COc1nn(C)cc1C(=O)Nc1cccc(-c2nncn2C(C)C(F)(F)F)n1 (stereo not shown) [Example 10, 3-Methoxy-1-methyl-N-(6-(4-(1,1,1-trifluoropropan-2-yl)-4H-1,2,4-triazol-3-yl)pyridin-2-yl)-1H-pyrazole-4-carboxamide]
IC50 [1]: ≤ 1000 nM

CCCn1cc(C(=O)Nc2cccc(-c3nncn3C(C)C)n2)c(OC)n1 [Example 58, N-(6-(4-Isopropyl-4H-1,2,4-triazol-3-yl)pyridin-2-yl)-3-methoxy-1-propyl-1H-pyrazole-4-carboxamide]
IC50 [1]: ≤ 1000 nM

COc1nn(CC2CC2)cc1C(=O)Nc1cccc(-c2cncn2C(C)C)n1 [Example 91, 1-(Cyclopropylmethyl)-N-(6-(1-isopropyl-1H-imidazol-5-yl)pyridin-2-yl)-3-methoxy-1H-pyrazole-4-carboxamide]
IC50 [1]: ≤ 1000 nM
